Assay results as given in patent US20110301239A1, “USE OF NOVEL LIPID MEDIATORS TO INHIBIT ANGIOGENESIS” (The Brigham and Women's Hospital, Inc., priority 2008, published 2011).

Experiments:
PMN infiltration = assay: Peritonitis model, PMN infiltration; assay type: in vivo
neutrophils = assay: Neutrophil infiltration in suture-inflamed corneas (anti-neutrophil NIMP-R14 staining of cross-sections); assay type: in vivo, BALB/c mice; settings: for neutrophils in inflamed cornea: 100 ng/10 μl subconjunctival at 0 h and 48 h, mean±SEM, n=3; for inhibition of neutrophils recruitment into the inflamed corneas: at 24 and 72 h, compared to vehicle-treated group, p<0.05
Description: (§1) Six to eight-week-old male BALB/c (Taconic Farms, Germantown, N.Y.) mice were used in all experiments. All experimental protocols were approved by the Schepens Eye Research Institute Animal Care and Use Committee, and all animals were treated according to the Association for Research in Vision and Ophthalmology Statement for the Use of Animals in Ophthalmic and Vision Research.
(§2) The standard model for induction of inflammatory corneal NV is associated with development of intrastromal vessels in close association with a mixed-cell (primarily neutrophilic) infiltrate.^14,15 Three interrupted sutures (11-0 nylon, Sharpoint; Vanguard, Houston, Tex.) were placed intrastromally with two stromal incursions extending over 120° of the corneal circumference each to induce inflammatory corneal NV, which is also associated with significant LA, as described previously.^14 The corneas were followed by slit-lamp biomicroscopy for corneal NV development. NV was graded between 0 and 3, with increments of 0.5, using a grid system per each corneal quadrant based on the centripetal extent of the neovascular branches from the limbus. Scores for each quadrant then summed to derive the NV index (range 0 to 12) for each eye, as previously described.^14
(§3) BALB/c mice were randomized to receive RvD1, RvE1 or vehicle (normal saline) by subconjunctival injection in a masked fashion after suture or hydron pellet placement. The compounds were administered at a dose of 100 ng/10 μl per mouse every 48 h after suture or pellet placed. For these experiments, RvD1 and RvE1 were prepared by total organic synthesis as reported previously,^17,18 in the total organic synthesis core for NIH P-50 DE0169191. The physical properties were monitored routinely via LC/MS/MS matching the reported biological and physical properties prior to analysis in present experiments.
(§4) Full thickness corneal tissue or 8 μm-frozen sections were fixed in acetone for 15 minutes at room temperature. To block non-specific staining, anti-FcR mAb ([…], FcγIII/II receptor) or 10% goat serum was used before primary antibodies or isotype-matched control antibodies were applied at 4° C. overnight. Thereafter, samples were incubated with secondary antibodies at RT. Each step was followed by three thorough washings in PBS for 5-10 minutes. Finally, the samples were covered with mounting medium (Vector Laboratories, Burlingame, Calif.) and analyzed by epifluorescence microscopy (Eclipse E800; Nikon, Tokyo, Japan). The following antibodies were used: FITC-conjugated rat anti-mouse CD31 (Santa Cruz Biotechnology, Santa Cruz, Calif.), purified rat anti-mouse neutrophil (NIMP-R14, Abcam, Cambridge, Mass.), purified rat anti-mouse F4/80 (Novus Biologicals, Littleton, Colo.) and purified rabbit anti-mouse LYVE-1 (Abcam, Cambridge, Mass.). The secondary antibodies were Rodamine-conjugated donkey anti-rabbit IgG and Rodamine-conjugated goat anti-rat IgG (Santa Cruz Biotechnology, Santa Cruz, Calif.). Isotype controls included FITC-conjugated rat IgG2a, purified rat IgG2b, and purified rabbit IgG (Santa Cruz Biotechnology, Santa Cruz, Calif.).

macrophages = assay: Macrophage infiltration in suture-inflamed corneas (anti-F4/80 staining of cross-sections); assay type: in vivo, BALB/c mice; settings: 72 h after suture placement; 100 ng/10 μl subconjunctival; mean±SEM, n=3; vehicle 83±3
Description: as §1, with “Research. […]” for “Research.”
(§5) BALB/c mice were randomized to receive RvD1, RvE1 or vehicle (normal saline) by subconjunctival injection in a masked fashion after suture or hydron pellet placement. […] The physical properties were monitored routinely via LC/MS/MS matching the reported biological and physical properties prior to analysis in present experiments.
Full thickness corneal tissue or 8 μm-frozen sections were fixed in acetone for 15 minutes at room temperature. […] Finally, the samples were covered with mounting medium (Vector Laboratories, Burlingame, Calif.) and analyzed by epifluorescence microscopy (Eclipse E800; Nikon, Tokyo, Japan). […]

TNF-α = assay: Real-time PCR of TNF-α mRNA in suture-inflamed corneas; assay type: in vivo, BALB/c mice; settings: vs vehicle
Description: as §1, §2, §3
Corneas were carefully dissected to ensure that the conjunctival and iris tissues were not included. To extract mRNA from whole-thickness corneas, two corneas were pooled as a sample in each group. To extract mRNA from corneal epithelial and stroma-endothelial layers separately, intact corneas were placed in 30 μl of RNA stabilization reagent (RNAlater, Qiagen, Valencia, Calif.) at 4° C. overnight and then stored at −30° C. for 2-3 days. […]
(§6) A combined-method for total RNA isolation was employed, using Trizol (Invitrogen Corp., Carlsbad, Calif.) and RNeasy MinElute Spin Columns (Qiagen, Valencia, Calif.), as described previously.^21 Reverse transcription of total RNA was conducted using oligo(dT)20 primer and Superscript™ III Reverse Transcriptase (Invitrogen, Carlsbad, Calif.). […] The mean density of each band was measured by using NIH image J software. […]

IL-1α = assay: Real-time PCR of IL-1α mRNA in suture-inflamed corneas; assay type: in vivo, BALB/c mice; settings: 24 h and 72 h after suture placement, vs vehicle
Description: as §1, with “Research. […]” for “Research.”
as §5, with “experiments. […]” for “experiments.”
as §6

VEGF-A = assay: Real-time PCR of VEGF-A mRNA in suture-inflamed corneas; assay type: in vivo, BALB/c mice; settings: 24 h and 72 h after suture placement, vs vehicle-treated group
Description: as §1, with “Research. […]” for “Research.”
as §5, with “experiments. […]” for “experiments.”
as §6

VEGF-C = assay: Real-time PCR of VEGF-C mRNA in suture-inflamed corneas; assay type: in vivo, BALB/c mice; settings: 24 h and 72 h after suture placement, vs vehicle-treated group
Description: as §1, with “Research. […]” for “Research.”
as §5, with “experiments. […]” for “experiments.”
as §6

VEGFR-2 = assay: Real-time PCR of VEGFR-2 mRNA in suture-inflamed corneas; assay type: in vivo, BALB/c mice; settings: 24 h and 72 h after suture placement, vs vehicle-treated group
Description: as §1, with “Research. […]” for “Research.”
as §5, with “experiments. […]” for “experiments.”
as §6

VEGF-D = assay: Real-time PCR of VEGF-D mRNA in suture-inflamed corneas; assay type: in vivo, BALB/c mice; settings: relative to vehicle-treated controls
Description: as §1, with “Research. […]” for “Research.”
as §5, with “experiments. […]” for “experiments.”
as §6

VEGFR-3 = assay: Real-time PCR of VEGFR-3 mRNA in suture-inflamed corneas; assay type: in vivo, BALB/c mice; settings: relative to vehicle-treated controls
Description: as §1, with “Research. […]” for “Research.”
as §5, with “experiments. […]” for “experiments.”
as §6

[1] = test system: suture-induced corneal NV; assay: Suture-induced inflammatory corneal angiogenesis (slit-lamp NV score, CD31/LYVE-1 vessel density); assay type: in vivo, BALB/c mice; settings: for angiogenic response (corneal neovessels by slit lamp biomicroscopy): 2-week time course, subconjunctival every 48 h, relative to vehicle control; for significant changes in the density of lymphatic vessels / BV density (CD31high/LYVE-1−): day 14 after suture placement; for significant changes in the density of lymphatic vessels: relative to vehicle controls; for BV density (CD31high/LYVE-1−): mean±SEM, n=6, vehicle 23.18±1.12%
Description: as §1, §2, §3, §4
(§7) To quantify corneal angiogenesis, digital pictures of corneal flat-mounts were taken using an image analysis system (Spot Image Analysis, Diagnostic Instruments, Sterling Heights, Mich.). The areas covered by CD31^high/LYVE-1^−-vessels (blood vessels) or CD31^lowLYVE-1^high vessels (lymphatics) were measured morphometrically using NIH Image J software (version 1.34s; http://rsb.info.nih.gov/ij). The total corneal area was outlined using the inner-most vessel of the limbal arcade as the border. The vessel density was calculated by the proportion of neovascularized area to the whole corneal area.

[2] = test system: VEGF-A-induced corneal HA and LA; assay: Corneal micropocket assay, VEGF-A pellet; assay type: in vivo, BALB/c mice; settings: day 7; for BV density: VEGF-A micropellet, mean±SEM, n=4, vehicle 14.75±3.8%, not significantly lower; for reduction of LA: stimulated by VEGF-A micropellet
Description: as §1
(§8) The corneal micropocket assay in mice and quantification of the resultant NV has been described previously.^16,17 In brief, 0.3 μl of hydron pellets (IFN Sciences, New Brunswick, N.J.) containing 30 ng of murine IL-1β (R&D Systems, Minneapolis, Minn.) or 200 ng of VEGF-A (gift from BRB Preclinical Repository, National Cancer Institute) were prepared and implanted into the corneal stroma of male BALB/c mice. After 7 days the animals were sacrificed and the corneas were harvested for quantitative analysis of HA and LA.
as §3
(§9) Full thickness corneal tissue or 8 μm-frozen sections were fixed in acetone for 15 minutes at room temperature. To block non-specific staining, anti-FcR mAb ([…], FcγIII/II receptor) or 10% goat serum was used before primary antibodies or isotype-matched control antibodies were applied at 4° C. overnight. Thereafter, samples were incubated with secondary antibodies at RT. Each step was followed by three thorough washings in PBS for 5-10 minutes. Finally, the samples were covered with mounting medium (Vector Laboratories, Burlingame, Calif.) and analyzed by epifluorescence microscopy (Eclipse E800; Nikon, Tokyo, Japan). […]
as §7, with “The total corneal area was outlined using the inner-most vessel of the limbal arcade as the border.” left out

[3] = test system: IL-1β-induced corneal HA and LA; assay: Corneal micropocket assay, IL-1β pellet; assay type: in vivo, BALB/c mice; settings: day 7; for BV density: IL-1β micropellet, mean±SEM, n=4, vehicle 26.8±2.0%, significantly impaired; for reduction of LA: stimulated by IL-1β micropellet
Description: as §1, §8, §3, §9
as §7, with “The total corneal area was outlined using the inner-most vessel of the limbal arcade as the border.” left out

[4] = 24 h after suture placement, vehicle 81±6
[5] = 72 h after suture placement, vehicle 57±4

SMILES | neutrophils in inflamed cornea (neutrophils; [4]) [cells/section] | neutrophils in inflamed cornea (neutrophils; [5]) [cells/section] | inhibition of neutrophils recruitment into the inflamed corneas (neutrophils) [%] | macrophage in inflamed cornea (macrophages) [cells/section] | increases in TNF-α expression (mRNA) (TNF-α; 24 h after suture placement) | increases in TNF-α expression (mRNA) (TNF-α; 72 h after suture placement) | expression of IL-1α (mRNA) (IL-1α) | mRNA expression of VEGF-A (VEGF-A) | mRNA expression of VEGF-C (VEGF-C) | mRNA expression of VEGFR-2 (VEGFR-2) | mRNA expression of VEGF-D (VEGF-D) | mRNA expression of VEGFR-3 (VEGFR-3) | angiogenic response (corneal neovessels by slit lamp biomicroscopy) [1] | significant changes in the density of lymphatic vessels [1] | BV density (CD31high/LYVE-1−) [1] [%] | BV density [2] [%] | reduction of LA [2] | BV density [3] [%] | reduction of LA [3] | further results
CCC(O)/C=C/C=C\C/C=C\C/C=C\C=C\[C@@H](O)CCCC(=O)O (mixture of isomers) [5S, 18 (+/−)-diHEPA] | – | – | – | – | – | – | – | – | – | – | – | – | – | – | – | – | – | – | – | anti-inflammatory activity, PMN infiltration (PMN infiltration): downregulation of PMN infiltration; potency compared with Resolvin E1 (PMN infiltration; at an equal dose amount): equipotent to Resolvin E1
CC/C=C\C[C@H](O)/C=C/C=C\C=C\C=C\[C@@H](O)[C@@H](O)C/C=C\CCC(=O)O [RvD1, 7S,8R,17S-trihydroxy-4Z,9E,11E,13Z,15E,19Z-docosahexaenoic acid] | 62±4 | 40±3 | ~30 | 57±4 | significantly suppressed | not at 72 h | not significantly altered | lower mRNA expressions | lower mRNA expressions | lower mRNA expressions | not significantly altered | not significantly altered | significant suppression | not observed | 8.4±0.39 | 10.9±2.3 | no significant reduction | 17.1±2.4 | no significant reduction | –
CC[C@@H](O)/C=C/C=C\C[C@@H](O)/C=C/C=C/C=C\[C@@H](O)CCCC(=O)O [RvE1, 5S,12R,18R-trihydroxy-6Z,8E,10E,14Z,16E-EPA] | 52±4 | 41±4 | ~30 | 49±7 | significantly suppressed | significant lowering | not significantly altered | lower mRNA expressions | lower mRNA expressions | lower mRNA expressions | not significantly altered | not significantly altered | significant suppression | not observed | 10.92±0.53 | 14.1±2.2 | no significant reduction | 18.6±2.2 | no significant reduction | –
